Measured values reported in patent US20230115120A1, “COMPOSITIONS, METHODS AND USES OF COMBINATION TREATMENTS FOR BLOOD CANCERS” (University of New Brunswick, priority 2020, published 2023).

Tests used:
[1] = test system: IKZF1, IKZF3, IRF4, MYC and HDAC1 gene expression in human myeloma cells (KMM-1); assay: RNA Seq gene expression profiling in KMM-1 myeloma cells; type: cell-based; settings: in comparison with untreated and lenalidomide (10 uM) treated conditions, FIG. 1
Experimental: RNA from myeloma cells (treated and untreated) was isolated and checked for integrity using the Agilent Bioanalyzer 2100 system (Agilent Technologies, Santa Clara, Calif., USA) and quantified using a Qubit fluorometric assay (Thermo Fisher Scientific, USA). RNA Seq was carried out at the Genome Quebec, Montreal, Canada. […] The remaining steps of library preparation were done using the NEBNext Ultra II DNA Library Prep Kit for Illumina (New England BioLabs). Adapters and PCR primers were purchased from New England BioLabs. Libraries were quantified using the Quant-iT™ PicoGreen® dsDNA Assay Kit (Life Technologies) and the Kapa Illumina GA with Revised Primers-SYBR Fast Universal kit (Kapa Biosystems). Average size fragment was determined using a LabChip GX (PerkinElmer) instrument. All bioinformatics analyses were done by the Canadian Centre for Computational Genomics (C3G)-Montréal Node, Canada.

[2] = test system: HDAC1, Sp1, IRF4, IKZF1 and c-MYC protein in human myeloma cell lines JJN3 and MMIR; assay: Western blots of key protein targets in myeloma cell lines; type: cell-based; settings: 1, 5, 10 and 25 uM, in comparison with panobinostat, FIG. 2a, 2b
Experimental: Western/Immunoblotting Methods. Protein lysates were obtained from untreated and CAPE (2) analog-treated myeloma cells and the concentration of proteins was determined by the BCA method. Proteins were resolved in a 4-20% criterion gel followed by electrophoretic transfer to nitrocellulose membrane (Bio-Rad Laboratories Inc., Germany). Membranes were then blocked with 5% skimmed milk in tris-buffered saline-tween (TBS-T) for 1 h and then, after rapid TBS-T washes, incubated overnight at 4° C. with a primary antibody of interest. Goat polyclonal anti-IRF4, rabbit polyclonal anti-Ikaros (Santa Cruz Biotechnology, Santa Cruz, Calif.); mouse monoclonal anti-Caspase-8, rabbit anti-Caspase-3, cleaved Caspase-3, anti-Sp1 (Cell Signaling Technology, Whitby, ON), rabbit monoclonal anti-MYC and mouse monoclonal β-actin antibody (Abcam, Cambridge, Mass.) were the primary antibodies used for this study. Following this, the membrane was incubated with HRP conjugated secondary antibodies. Protein levels in immunoblots were detected with an Amersham™ ECL™ Prime western blotting detection kit (GE Healthcare, ON, Canada), the imaging was performed using the ChemiDoc™ MP imaging system (Bio-Rad Laboratories, USA) and densitometry analyses were done using the Image Lab 5.0 software.

myeloma cell line JJN3 = assay: Cell growth inhibition (PrestoBlue) in myeloma cell line JJN3; type: cell-based, Human; settings: FIG. 3a
Experimental: Cell Culture. Human myeloma cell lines JJN3 were purchased from ATCC, KMM-1 was procured from the Japanese Collection of Research Bioresources Cell Bank (JCBR, Japan). The MM1.R cell line was a kind gift from Dr. Jonathan Keats, Translational Genomics Research Institute (TGen, USA). JJN3 cells were grown in RPMI-1640 medium (Sigma Aldrich, USA) supplemented with 5% heat inactivated FBS (Gibco), 1% I-glutamine (Gibco), 5 mM HEPES, and 1% Penstrep (Sigma Aldrich, USA); KMM-1 cells in RPMI-1640 media supplemented with 10% FBS, 1% L-glutamine (Gibco) and 1% Penstrep; MM1.R cells in advanced RPMI-1640 medium with 4% FBS and 1% Glutamax, in a humidified 5% CO2 incubator at 37° C. Cell lines were tested regularly for mycoplasma and kept free of contamination. Lenalidomide, terameprocol (Sigma Aldrich, USA) and pomalidomide from Selleck chemicals were used.
Cell Growth Inhibition Studies. A 48-h cell growth inhibition assay was conducted using the PrestoBlue cell viability kit (Invitrogen, ON, Canada). Cells were plated at 10,000 cells/well in 96-well tissue culture plates. The effect of single inhibitor and inhibitor combination treatments were done using appropriate vehicle and medium (blank) controls. Cells were incubated at 37° C. in a 5% CO2 incubator for 48 h or 72 h depending on the chosen duration of the study. At the end of the treatment, cell growth inhibition was determined by the PrestoBlue assay. […] Cell growth was assessed fluorometrically at 37° C. using the BioTek Synergy H4 Hybrid Multi-Mode microplate reader (535 nm excitation; 615 nm emission) with Gen 2.06 analyses software. Fluorescence values were corrected for any background fluorescence of the medium and test fractions by subtracting fluorescence readings of the appropriate blanks from the mean fluorescence readings of the untreated control and test wells. The percentage inhibition of cell growth was then defined as 1−(mean test well fluorescence/mean control well fluorescence)×100.

myeloma cell = assay: Myeloma cell growth inhibition, combination treatments (FIG. 4, FIG. 5); type: cell-based, Human
Experimental: Cell Growth Inhibition Studies. A 48-h cell growth inhibition assay was conducted using the PrestoBlue cell viability kit (Invitrogen, ON, Canada). Cells were plated at 10,000 cells/well in 96-well tissue culture plates. The effect of single inhibitor and inhibitor combination treatments were done using appropriate vehicle and medium (blank) controls. Cells were incubated at 37° C. in a 5% CO2 incubator for 48 h or 72 h depending on the chosen duration of the study. At the end of the treatment, cell growth inhibition was determined by the PrestoBlue assay. In brief, 10% PrestoBlue reagent was added to untreated and treated cells in […] in each well and incubated at 37° C. for one and a half hours. Cell growth was assessed fluorometrically at 37° C. using the BioTek Synergy H4 Hybrid Multi-Mode microplate reader (535 nm excitation; 615 nm emission) with Gen 2.06 analyses software. Fluorescence values were corrected for any background fluorescence of the medium and test fractions by subtracting fluorescence readings of the appropriate blanks from the mean fluorescence readings of the untreated control and test wells. The percentage inhibition of cell growth was then defined as 1−(mean test well fluorescence/mean control well fluorescence)×100.

SMILES: O=C(/C=C/c1ccc(O)c(O)c1)OCCCc1ccccc1 [GL8]
- gene expression of IKZF1, IKZF3, IRF4, MYC and HDAC1 ([1]; 25 uM): downregulated
- gene expression of IKZF1, IKZF3, IRF4, MYC and HDAC1 ([1]; 50 uM): downregulated

SMILES: O=C(/C=C/c1ccc(O)c(O)c1)OCCc1ccccc1 [CAPE, caffeic acid phenethyl ester]
- gene expression of IKZF1, IKZF3, IRF4, MYC and HDAC1 ([1]; 50 uM): downregulated
- protein levels of HDAC1, Sp1, IRF4, IKZF1 and c-MYC [2]: lowered

SMILES: Cc1[nH]c2ccccc2c1CCNCc1ccc(/C=C/C(=O)NO)cc1 [panobinostat, reference compound]
- inhibition at 1 pM (myeloma cell line JJN3; Homo sapiens, JJN-3, panobinostat alone, 0.001 nM): 17 ± 3%

SMILES: O=C(/C=C/c1cc(O)ccc1O)OCCCc1ccccc1 [As26]
- myeloma cell growth inhibition (myeloma cell line JJN3; combination 2.5 μM As26 with 0.001 nM panobinostat): 54.4%
- myeloma cell growth inhibition (myeloma cell line JJN3; combination 5 μM As26 with 0.001 nM panobinostat): 69.8%
- myeloma cell growth inhibition, combination versus single agents (myeloma cell; Sp1 inhibitor Terameprocol (TMP) and As26 combination, FIG. 5): augmented myeloma cell growth inhibition
- myeloma cell growth inhibition, combination versus single agents (myeloma cell; Trichostatin A and IC 50 As26 combination treatment, FIG. 4): augmented myeloma cell growth inhibition
